This is an account of results in US20260373119A1, “NOVEL COMPOUND, AND COMPOSITION FOR PREVENTING OR TREATING HER2-POSITIVE CANCER, COMPRISING SAME” (EWHA UNIVERSITY - INDUSTRY COLLABORATION FOUNDATION, priority 2022, published 2026).

A word on the IC50: it is the concentration that inhibits the measured activity by half. A word on the Ki: it is the dissociation constant of the complex between target and ligand, obtained from inhibition or displacement. Broadly, the solubility is the dissolved amount per volume that the medium holds.

In brackets after ≈: the same amount, converted by molar mass.

For data set [1], the system named is NCI-N87 (HER2-positive gastric cancer cell line). Kind of data set: antiproliferative effect, NCI-N87. It is filed as cell-based. To be noted: 72 hours.
The target in data set [2] is T1, (His)6-MED23391-582 / FITC-ELF3129-145 peptide (Homo sapiens, UniProt Q9ULK4).
T1 construct: 391-582 and fluorescein isothiocyanate (FITC)-labeled
T1 sequence (Q9ULK4 391-582 limits assumed): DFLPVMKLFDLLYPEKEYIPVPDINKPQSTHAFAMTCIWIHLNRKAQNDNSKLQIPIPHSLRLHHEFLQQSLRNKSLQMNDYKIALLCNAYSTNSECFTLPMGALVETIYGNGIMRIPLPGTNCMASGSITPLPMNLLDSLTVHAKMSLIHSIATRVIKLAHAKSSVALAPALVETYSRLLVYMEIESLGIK
Description: fluorescence polarization displacement assay. It is filed as binding. The protocol:
The samples, adjusted to a final volume of 50 μL, were incubated at room temperature for 30 minutes. Kd values were calculated using a least-squares non-linear fit method with Prism 6.0 software (GraphPad Software, USA). FP signals were measured in millipolarization (mP) units using an Infinite F200 PRO microplate reader (Tecan Group Ltd., Switzerland) at an excitation wavelength of 485 nm and an emission wavelength of 535 nm. For displacement analysis, graded concentrations of YK1 and unlabeled ELF3137-144 peptides were mixed with 80 nM (His) 6-MED23391-582 and 10 nM FITC-ELF3129-145.
The effect of compound YK1 was confirmed by measuring the reduction in FP signals, using unlabeled peptides as a positive control. The IC50 of each compound was determined by fitting the data to a four-parameter logistic equation using the Table Curve 2D program (SPSS Inc.). The Ki value was calculated using the Cheng-Prusoff equation (Ki=IC50/1+([Ligand]/Kd))
For orientation: In fluorescence polarisation assays a small probe gives low polarisation when free and higher when bound to something large.

Another data set relates to HER2 gene. Kind of data set: HER2 gene (mRNA) expression. The format is cell-based. To be noted: dose-dependent. As to the method: To further confirm the effects of the candidate compound, […] quantitative analysis was performed. Specifically, RNA was extracted from cells using the FavorPrep Tri-RNA reagent (FAVORGEN Biotech Corp., Taiwan) and reverse-transcribed into complementary DNA (cDNA) using the PrimeScript RT Reagent Kit (Takara Bio Inc., Japan) following the manufacturer's instructions. Quantitative gene analysis was conducted using the SensiFAST SYBR No-ROX kit (Bioline, Canada). PCR was performed using the CFX96™ real-time PCR detection system (Bio-Rad, USA) under the following protocol: 95 °C for 2 minutes, and 27 cycles at 95 °C for 10 seconds, 56 °C for 10 seconds, and 72 °C for 20 seconds. The relative amount of mRNA was determined using the ΔΔCt method, and normalized against GAPDH or ACTIN. […]

A further data set addresses EGFR (Homo sapiens, UniProt P00533). Description: kinase profiling, EGFR. The settings on record: read-out: In vitro kinase inhibitory activity (%). The format is biochemical. As to the method: (§1) Kinase inhibitory activity of the candidate compound at 10 μM and 25 μM was assessed using Eurofins Kinase Profiling Services. Inhibitory effects on c-RAF, EGFR, ErbB2, ErbB4, and PI3 kinase were analyzed according to the Kinase Profiler Service Assay protocol.

In another data set the target is ErbB2 (Homo sapiens, UniProt P04626). Description: kinase profiling, ErbB2. It is filed as biochemical. The settings on record: read-out: In vitro kinase inhibitory activity (%). The protocol:
as §1

Another data set has as its system HER2. Description: IHC of NCI-N87 xenograft tumors, HER2. It is filed as in vivo, mice. To be noted: vs control group. The protocol:
(§2) Xenograft mice were generated to evaluate the anticancer effects of the candidate compound. NCI-N87 and JIMT-1 cells (5×10^6 cells), dissolved in 100 μL of 1× phosphate-buffered saline (PBS), were subcutaneously injected into the right flanks of 5-week-old female athymic nude mice (Envigo, USA) or 4-week-old female NOD-SCID mice (Koatech, South Korea). When the tumors reached a volume of 90-100 mm^3, the mice were randomized into designated groups. For the NCI-N87 xenograft, intravenous administration was performed six times at 3-day intervals. For the JIMT-1 xenograft, intraperitoneal administration was performed eight times at 3-day intervals. […] Tumor size changes were monitored until the mean tumor size in the control group reached 2,000-2,500 mm^3. On day 28 for the NCI-N87 xenograft and day 46 for the JIMT-1 xenograft, the mice were sacrificed, and tumors were excised to determine relative tumor sizes. Tumor length (L) and width (W) were measured with calipers, and tumor volume was calculated using the formula: […]
(§3) For immunohistochemistry (IHC) analysis, tumors from the xenograft models were prepared as paraffin-embedded sections. […] The control group was counterstained with hematoxylin, and the IHC staining was evaluated under an optical microscope at 200× magnification.

Another data set can be described thus: solubility. The format is physicochemical. The settings on record: pH 7.
Another data set deals with TZMB-resistant cells. Description: treatment of TZMB-resistant cells. The settings on record: BT474 TR, NCI-N87 TR, JIMT-1. It is filed as cell-based.
In a further data set the test system is Ki-67. Description: JIMT-1 xenograft, Ki-67. It is filed as in vivo, mice. To be noted: 4 mg/kg, vs TZMB-treated group. The protocol:
as §2, §3

The nature of data set [3]: JIMT-1 xenograft, body weight. The format is in vivo, mice. To be noted: 4 mg/kg.
Description: Xenograft mice were generated to evaluate the anticancer effects of the candidate compound. […] When the tumors reached a volume of 90-100 mm^3, the mice were randomized into designated groups. […] For the JIMT-1 xenograft, intraperitoneal administration was performed eight times at 3-day intervals. […] Tumor size changes were monitored until the mean tumor size in the control group reached 2,000-2,500 mm^3. On day 28 for the NCI-N87 xenograft and day 46 for the JIMT-1 xenograft, the mice were sacrificed, and tumors were excised to determine relative tumor sizes. Tumor length (L) and width (W) were measured with calipers, and tumor volume was calculated using the formula:
To assess resistance-avoidance effects in vivo, JIMT-1 xenograft mice were treated with 4 mg/kg of the candidate compound or TZMB.

Sequence of ErbB2 (P04626 676-1255 limits assumed): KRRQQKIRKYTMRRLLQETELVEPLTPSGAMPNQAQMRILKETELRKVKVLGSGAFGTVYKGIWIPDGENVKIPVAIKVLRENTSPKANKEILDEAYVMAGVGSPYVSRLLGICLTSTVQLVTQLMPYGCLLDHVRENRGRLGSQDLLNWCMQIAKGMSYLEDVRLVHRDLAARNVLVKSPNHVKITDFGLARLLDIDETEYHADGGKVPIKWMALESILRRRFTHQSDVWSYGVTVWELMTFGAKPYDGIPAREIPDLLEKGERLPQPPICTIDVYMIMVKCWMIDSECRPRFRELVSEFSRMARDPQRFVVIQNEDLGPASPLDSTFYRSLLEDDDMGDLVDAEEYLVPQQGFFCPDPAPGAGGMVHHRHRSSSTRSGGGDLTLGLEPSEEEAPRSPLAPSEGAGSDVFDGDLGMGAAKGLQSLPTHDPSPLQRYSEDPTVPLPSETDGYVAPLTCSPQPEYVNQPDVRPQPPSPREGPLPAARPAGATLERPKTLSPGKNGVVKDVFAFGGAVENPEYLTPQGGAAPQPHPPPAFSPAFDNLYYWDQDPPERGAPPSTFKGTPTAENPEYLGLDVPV
Sequence of EGFR (P00533 669-1210 limits assumed): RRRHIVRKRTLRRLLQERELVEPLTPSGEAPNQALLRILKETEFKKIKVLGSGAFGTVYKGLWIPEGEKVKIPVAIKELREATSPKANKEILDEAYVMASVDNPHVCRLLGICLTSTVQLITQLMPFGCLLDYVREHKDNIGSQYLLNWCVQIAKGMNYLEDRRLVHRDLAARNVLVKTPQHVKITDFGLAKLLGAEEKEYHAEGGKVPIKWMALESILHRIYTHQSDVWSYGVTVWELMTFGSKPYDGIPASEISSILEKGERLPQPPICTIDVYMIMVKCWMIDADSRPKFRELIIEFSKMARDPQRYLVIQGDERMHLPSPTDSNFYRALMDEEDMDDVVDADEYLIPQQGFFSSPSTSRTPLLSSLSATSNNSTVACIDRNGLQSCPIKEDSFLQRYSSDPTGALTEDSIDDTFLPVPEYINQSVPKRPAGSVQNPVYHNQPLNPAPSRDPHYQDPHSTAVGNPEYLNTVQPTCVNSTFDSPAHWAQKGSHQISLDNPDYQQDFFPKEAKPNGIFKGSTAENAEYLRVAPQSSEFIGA
Description for TZMB-resistant cells: The ability of the candidate compound to overcome trastuzumab resistance was evaluated.

As for `CC(=O)N1N=C(c2cccc(O)c2)CC1c1ccc(Cl)cc1` (centres unmarked) [Compound 15, 1-[5-(4-Chlorophenyl)-3-(3-hydroxyphenyl)-4,5-dihydropyrazol-1-yl]-ethanone], in data set [1], the “growth of NCI-N87 cells” value is “significantly inhibited the growth of NCI-N87 cells”. The compound also returned an IC50 in [1] (Homo sapiens, NCI-N87, HER2-positive) of 1560 ± 140 nM. The Ki in data set [2] (80 nM (His)6-MED23391-582, 10 nM FITC-ELF3129-145, Cheng-Prusoff, read-out: PPI inhibitory activity calculated based on Ki value) was 4270 ± 250 nM. The “decrease in FP signals” value in data set [2] (displacement of FITC-ELF3129-145 from MED23391-582) was “significant decrease in FP signals”. Also, the “HER2 gene expression level” value with HER2 gene is “significantly downregulate HER2 gene and protein expression levels in a dose-dependent manner”. Also, the inhibition at 10 µM on EGFR (10 μM) came out at 0%; at ErbB2 (ErbB2, 10 μM) it was 2%. The inhibition at 25 µM on EGFR (25 μM) was found to be 0%; on ErbB2 (ErbB2, 25 μM), 0%. The HER2 levels reduction result in the data set with HER2 is given as “approximately 1.8 fold”. The solubility in “solubility” worked out at 103.2 ± 0.6 µg/mL (≈ 328 µM). Also, in the data set with TZMB-resistant cells, the “anticancer effect in TZMB-resistant cells” value is “significant anticancer effects not only in TZMB-sensitive cells but also in TZMB-resistant cells”. Moreover, the “proliferation marker Ki-67” value with Ki-67 is “significantly reduced in the candidate compound-treated group compared to the TZMB-treated group”. Moreover, the body weight result in data set [3] is “remained generally consistent”.
